Key:
[1] = Solution stability, accelerated stress test; assay type: physicochemical; settings: 14 days; for Predicted Shelf Life: 25° C., loss of 10% compound (T90), extrapolated from 75° C., pH 5 0.025 M sodium citrate buffer, HPLC
Protocol: The solution stability of the example compounds were assessed using an accelerated stress test. The compound was dissolved in pH 5, 0.025 M sodium citrate buffer (5˜15 μg/mL). In duplicate, 2 mL of each solution in a glass vial was heated at 75° C. for 14 days. Samples were analyzed periodically using HPLC and % degradation was calculated for the sample. The predicted shelf life (25° C.) was based on the loss of 10% compound (T90) and the fact that the rate of degradation for a first order reaction decreased 50% for every 10° C. drop in temperature.

[2] = system: hypertensive cynomolgus monkeys; settings: dose 250 μg, cited from earlier work

| SMILES | Predicted Shelf Life [1] [months] | Stability relative to the parent compound α-methylserotonin (oxidative degradation and ester hydrolysis) ([1]; stress conditions: pH 5 citrate buffer, 75° C.) | Percent IOP Reduction ± SEM, 1 hour after dose [2] [%] | Percent IOP Reduction ± SEM, 3 hours after dose [2] [%] | Percent IOP Reduction ± SEM, 6 hours after dose [2] [%] |
| --- | --- | --- | --- | --- | --- |
| CCC(=O)Oc1ccc2[nH]cc(CC(C)N)c2c1 (stereo not drawn) [Example 1, Propionic acid 3-(2-aminopropyl)1H-indol-5-yl ester] | 1.32 | did not provide an increase in the stability of the parent compound |  |  |  |
| CC(N)Cc1c[nH]c2ccc(OC(=O)C(C)C)cc12 (stereo not drawn) [Example 2, Isobutyric acid 3-(2-aminopropyl)-1H-indol-5yl ester] | 3.36 |  |  |  |  |
| CC(N)Cc1c[nH]c2ccc(OC(=O)C(C)(C)C)cc12 (stereo not drawn) [Example 3, 2,2-Dimethyl-propionic acid 3-(2-aminopropyl)-1H-indol-5yl ester] | 11.3 |  |  |  |  |
| CC(N)Cc1c[nH]c2ccc(OC(=O)C3CC3)cc12 (stereo not drawn) [Example 4, Cyclopropanecarboxylic acid 3-(2-aminopropyl)-1H-indol-5yl ester] | 5.81 |  |  |  |  |
| NCCc1c[nH]c2ccc(O)cc12 [Serotonin] |  |  | 13.3 ± 5.31 | 18.0 ± 5.12 | 2.0 ± 7.39 |
| CC(N)Cc1c[nH]c2ccc(O)cc12 (stereo not drawn) [α-methylserotonin, 3-(2-aminopropyl)-1H-indol-5-ol] | 2.6 |  | 14.2 ± 4.39 | 25.8 ± 5.16 | 30.8 ± 7.72 |
